Reference: the NIST ThermoML archive (doi:10.1021/je201080c)

Tests used:
[1] = refractive index (Na D-line) (dimensionless); settings: 101.33 kPa, Liquid, Standard Abbe refractometry
[2] = for viscosity / mass density: 101.33 kPa, Liquid; for viscosity: Surface Light Scattering; for mass density: Vibrating tube method; for surface tension liquid-gas: Pendant drop shape

CCn1cc[n+](C)c1.N#C[B-](C#N)(C#N)C#N [1-ethyl-3-methylimidazolium tetracyanoborate]
Settings	mass density, [2] [kg/m3]	refractive index, [1]	surface tension liquid-gas, [2] [mN/m]	viscosity, [2] [mPa·s]
283.15 K	1048.33	1.4533	–	37.06
288.15 K	1044.31	–	–	27.75
293.15 K	1040.31	1.4499	–	21.79
297.04 K	–	–	47.09	–
298.15 K	1036.34	–	–	–
303.15 K	1032.4	1.4465	–	14.65
308.15 K	1028.48	–	–	–
313.15 K	1024.59	1.4432	43.29	10.09
318.15 K	1020.72	–	–	–
323.15 K	1016.87	–	41.6	7.61
328.15 K	1013.06	–	–	–
333.15 K	1009.26	–	39.53	5.77
338.15 K	1005.49	–	–	–
343.15 K	1001.74	–	38.33	4.67
348.15 K	998.01	–	–	–
353.15 K	994.28	–	36.52	3.7
358.15 K	990.59	–	–	–
363.15 K	986.92	–	35.8	3.16
